#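 Five compound concentrations were applied to cells in 96-well plates for 48 hours; endpoints were derived by simple linear interpolation of the resulting dose-response curve. The concentration for full growth arrest is given as TGI.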
# Experiments:
# Assay in all cases: NCI tumour cell line growth inhibition, 48 h
# 786-0 renal = test system: 786-0 renal
# A549 NSCLC = test system: A549 NSCLC
# ACHN renal = test system: ACHN renal
# COLO 205 colon = test system: COLO 205 colon
# DU-145 prostate = test system: DU-145 prostate
# EKVX NSCLC = test system: EKVX NSCLC
# HCT-15 colon = test system: HCT-15 colon
# HOP-62 NSCLC = test system: HOP-62 NSCLC
# HOP-92 NSCLC = test system: HOP-92 NSCLC
# HS 578T breast = test system: HS 578T breast
# HT29 colon = test system: HT29 colon
# IGROV1 ovarian = test system: IGROV1 ovarian
# LOX IMVI melanoma = test system: LOX IMVI melanoma
# M14 melanoma = test system: M14 melanoma
# MALME-3M melanoma = test system: MALME-3M melanoma
# MDA-MB-231 breast = test system: MDA-MB-231 breast
# MDA-N = test system: MDA-N
# MOLT-4 leukemia = test system: MOLT-4 leukemia
# NCI-H460 lung = test system: NCI-H460 lung
# NCI-H522 lung = test system: NCI-H522 lung
# NCI/ADR-RES ovarian = test system: NCI/ADR-RES ovarian
# OVCAR-3 ovarian = test system: OVCAR-3 ovarian
# OVCAR-4 ovarian = test system: OVCAR-4 ovarian
# OVCAR-8 ovarian = test system: OVCAR-8 ovarian
# PC-3 prostate = test system: PC-3 prostate
# SF-268 CNS = test system: SF-268 CNS
# SF-295 CNS = test system: SF-295 CNS
# SK-MEL-2 melanoma = test system: SK-MEL-2 melanoma
# SK-MEL-5 melanoma = test system: SK-MEL-5 melanoma
# SK-OV-3 ovarian = test system: SK-OV-3 ovarian
# SN12C renal = test system: SN12C renal
# SNB-75 CNS = test system: SNB-75 CNS
# SR leukemia = test system: SR leukemia
# SW-620 colon = test system: SW-620 colon
# T-47D breast = test system: T-47D breast
# UACC-257 melanoma = test system: UACC-257 melanoma
# UACC-62 melanoma = test system: UACC-62 melanoma
smiles,measurement,setting,value
COc1cc(/C=C2\CN(C)CC3=C2NC(=S)NC3c2cc(OC)c(OC)c(OC)c2)cc(OC)c1OC (configuration not stated),TGI,786-0 renal,> 100 µM
same,TGI,A549 NSCLC,> 100 µM
same,TGI,ACHN renal,> 100 µM
same,TGI,COLO 205 colon,> 100 µM
same,TGI,DU-145 prostate,> 100 µM
same,TGI,EKVX NSCLC,> 100 µM
same,TGI,HCT-15 colon,> 100 µM
same,TGI,HOP-62 NSCLC,> 100 µM
same,TGI,HOP-92 NSCLC,> 100 µM
same,TGI,HS 578T breast,> 100 µM
same,TGI,HT29 colon,> 100 µM
same,TGI,IGROV1 ovarian,> 100 µM
same,TGI,LOX IMVI melanoma,> 100 µM
same,TGI,M14 melanoma,> 100 µM
same,TGI,MALME-3M melanoma,> 100 µM
same,TGI,MDA-MB-231 breast,> 100 µM
same,TGI,MDA-N,> 100 µM
same,TGI,MOLT-4 leukemia,> 100 µM
same,TGI,NCI-H460 lung,> 100 µM
same,TGI,NCI-H522 lung,> 100 µM
same,TGI,NCI/ADR-RES ovarian,> 100 µM
same,TGI,OVCAR-3 ovarian,> 100 µM
same,TGI,OVCAR-4 ovarian,> 100 µM
same,TGI,OVCAR-8 ovarian,> 100 µM
same,TGI,PC-3 prostate,> 100 µM
same,TGI,SF-268 CNS,> 100 µM
same,TGI,SF-295 CNS,> 100 µM
same,TGI,SK-MEL-2 melanoma,> 100 µM
same,TGI,SK-MEL-5 melanoma,65.7 µM
same,TGI,SK-OV-3 ovarian,> 100 µM
same,TGI,SN12C renal,> 100 µM
same,TGI,SNB-75 CNS,> 100 µM
same,TGI,SR leukemia,> 100 µM
same,TGI,SW-620 colon,> 100 µM
same,TGI,T-47D breast,> 100 µM
same,TGI,UACC-257 melanoma,> 100 µM
same,TGI,UACC-62 melanoma,> 100 µM
